Data reported in patent EP4737449A1 (Changchun Genescience Pharmaceutical Co., Ltd., priority 2023, dated 2025).

Target: T1, p53-Y220C mutant protein (Homo sapiens, UniProt P04637, Y220C)
T1 construct: The recombinant Y220C p53 DBD protein with his-tag
Test: In vitro DNA binding activity assay (TR-FRET)
Type: biochemical
Settings: concentration required to increase the binding activity of protein to DNA by 50%
Description: The activity of the compound to modulate the binding of the p53-Y220C mutant protein to DNA was detected using TR-FREt (Time-Resolved Fluorescence Resonance Energy Transfer). The recombinant Y220C p53 DBD protein with his-tag and the DNA sequence with biotin label were prepared firstly. Donor Eu(Europium)-SA(Streptavidin) can be bound to the DNA sequence through biotin, receptor for his antibody attached to alphaphycocyanin(APC, allophycocyanin), and his antibody can be bound to the Y220C p53 DBD protein with his-tag. When exposed to an excitation light with a wavelength of 340 nm, the donor Eu(Europium)-SA(Streptavidin) can emit fluorescence with a wavelength of 615 nm. If the donor and the receptor are close to each other, the donor will transfer part of the energy to the receptor and produce fluorescence with a wavelength of 665 nm. […] If there is no interaction, only 615 nm fluorescence is produced. • 1) Experimental steps • a. Adding 4 µL of dilute compound solution to each well of a 384-well microplate; • a. Adding 4 µL of 4X P53 working solution to each well of the 384-well microplate; • c. Sealing the 384-well microplate and equilibrating the system at room temperature for 60 min; • d. Adding 4 µl of biotin DNA solution to the 384-well microplate; • e. Adding 4 µl of 4X test solution (MAb Anti-6His-Eu and streptavidin-d2) to each well of the 384-well microplate; • f. Incubating overnight in the dark; and • g. Reading data of 665 nm and 615 nm wavelengths on the BMG multifunctional microplate reader. • 2) Data analysis • a. Calculating the ratio for each well (Ratio665 nm/615 nm-Ratiobackground); • b. Calculating the activity percentage (%activity) as follows: C = (Ave_Ac−Ave_Ba)/(Ave_Dc−Ave_Bd) [formula] R data = (A−Ave_Ba−CD)/(D−Ave_Bd)*(Ave_Dc−Ave_Bd) [formula] % Activity = R data/Ave_VC*100 [formula] • A: Fluorescence intensity of the sample at 665 nm; D: Fluorescence intensity of the sample at 615 nm; • Ba: Background fluorescence intensity of the culture plate at 665 nm; Bd: Background fluorescence intensity of the culture plate at 615 nm; • Dc: Background fluorescence intensity of HIS-E at 615 nm; Ac: Background fluorescence intensity of streptavidin-d2 at 665 nm); and • c. Calculating SC150 and plotting dose-effect curve
Compared to the absence of the compound of the present invention, the activation percentage of binding of the p53 mutant protein to DNA in the presence of the compound of the present invention is expressed as SC150, which indicates the concentration of the compound required to increase the DNA binding activity of the p53 mutant protein by 50%. The SC150 is calculated using Prism™.

SMILES | SC150 [nM]
CN1CC[C@@H](Nc2cccc3c(CC(F)(F)F)c(C#CCNC(=O)c4cnn(C5(C)CCOCC5)c4)nn23)[C@@H](F)C1 [Compound 014] | 13
CN1CC[C@@H](Nc2cccc3c(CC(F)(F)F)c(C#CCNC(=O)c4cnn(-c5ccccc5)c4)nn23)[C@@H](F)C1 [Compound 015, N-[3-(7-{[(3S,4R)-3-fluoro-l-methylpiperidin-4-yl]amino}-3-(2,2,2-trifluoroethyl)pyrazolo[1,5-a]pyridin-2-yl)prop-2-yn-1-yl]-1-phenyl-1H-pyrazole-4-carboxamide] | 62
COCC(C)(C)n1cc(C(=O)NCC#Cc2nn3c(N[C@@H]4CCN(C)C[C@@H]4F)cccc3c2CC(F)(F)F)cn1 [Compound 022, N-[3-(7-{[(3S,4R)-3-fluoro-1-methylpiperidin-4-yl]amino}-3-(2,2,2-trifluoroethyl)pyrazolo[1,5-a]pyridin-2-yl)prop-2-yn-1-yl]-1-(1-methoxy-2-methylpropan-2-yl)-1H-pyrazole-4-carboxamide] | 8
CN1CC[C@@H](Nc2cccc3c(CC(F)(F)F)c(C#CCNC(=O)c4cnn(C(F)(F)F)c4)nn23)[C@@H](F)C1 [Compound 024, N-[3-(7-{[(3S,4R)-3-fluoro-1-methylpiperidin-4-yl]amino}-3-(2,2,2-trifluoroethyl)pyrazolo[1,5-a]pyridin-2-yl)prop-2-yn-1-yl]-1-(trifluoromethyl)-1H-pyrazole-4-carboxamide] | 58
CC(n1cc(C(=O)NCC#Cc2nn3c(N[C@@H]4CCN(C)C[C@@H]4F)cccc3c2CC(F)(F)F)cn1)C(F)(F)F (stereo partly drawn) [Compound 029, N-[3-(7-{[(3S,4R)-3-fluoro-1-methylpiperidin-4-yl]amino}-3-(2,2,2-trifluoroethyl)pyrazolo[1,5-a]pyridin-2-yl)prop-2-yn-1-yl]-1-(1,1,1-trifluoroprop-2-yl)-1H-pyrazole-4-carboxamide] | 15

Second part, the compound after the results:

SC150 [nM] | SMILES
18 | CN1CC[C@@H](Nc2cccc3c(CC(F)(F)F)c(C#CCNC(=O)c4cnn(CC(F)(F)F)c4)nn23)[C@@H](F)C1 [Compound 030]
86 | COc1nn(C(C)(C)C)cc1C(=O)NCC#Cc1nn2c(N[C@@H]3CCN(C)C[C@@H]3F)cccc2c1CC(F)(F)F [Compound 043]
41 | COc1cccc(C(=O)NCC#Cc2nn3c(N[C@@H]4CCN(C)C[C@@H]4F)cccc3c2CC(F)(F)F)c1 [Compound 072, N-[3-(7-{[(3S,4R)-3-fluoro-1-methylpiperidin-4-yl]amino}-3-(2,2,2-trifluoroethyl)pyrazolo[1,5-a]pyridin-2-yl)prop-2-yn-1-yl]-3-methoxybenzamide]
95 | CN1CC[C@@H](Nc2cccc3c(CC(F)(F)F)c(C#CCNC(=O)c4ccccn4)nn23)[C@@H](F)C1 [Compound 075, N-[3-(7-{[(3S,4R)-3-fluoro-1-methylpiperidin-4-yl]amino}-3-(2,2,2-trifluoroethyl)pyrazolo[1,5-a]pyridin-2-yl)prop-2-yn-1-yl]pyridine-2-carboxamide]
75 | CN1CC[C@@H](Nc2cccc3c(CC(F)(F)F)c(C#CCNC(=O)c4ccc(F)cc4)nn23)[C@@H](F)C1 [Compound 076, 4-fluoro-N-[3-(7-{[(3S,4R)-3-fluoro-1-methylpiperidin-4-yl]amino}-3-(2,2,2-trifluoroethyl)pyrazolo[1,5-a]pyridin-2-yl)prop-2-yn-1-yl]benzamide]
29 | CN1CC[C@@H](Nc2cccc3c(CC(F)(F)F)c(C#CCNC(=O)c4cn(C(C)(C)C)nn4)nn23)[C@@H](F)C1 [Compound 142, 1-tert-butyl-N-[3-(7-{[(3S,4R)-3-fluoro-1-methylpiperidin-4-yl]amino}-3-(2,2,2-trifluoroethyl)pyrazolo[1,5-a]pyridin-2-yl)prop-2-yn-1-yl]-1H-1,2,3-triazole-4-carboxamide]
